The text below walks through data of ChEMBL document CHEMBL3992527, “Design and Synthesis of Novel Nonsteroidal Anti-Inflammatory Drugs and Carbonic Anhydrase Inhibitors Hybrids (NSAIDs-CAIs) for the Treatment of Rheumatoid Arthritis” (J Med Chem, 2017).

One data set addresses Carbonic anhydrase 9 (Homo sapiens, UniProt Q16790).
In a further data set the target is Carbonic anhydrase 1 (Homo sapiens, UniProt P00915). Put plainly: Inhibition of recombinant human CA1 preincubated for 15 mins by stopped-flow CO2 hydration assay.
Sequence of Carbonic anhydrase 1 (P00915 whole entry): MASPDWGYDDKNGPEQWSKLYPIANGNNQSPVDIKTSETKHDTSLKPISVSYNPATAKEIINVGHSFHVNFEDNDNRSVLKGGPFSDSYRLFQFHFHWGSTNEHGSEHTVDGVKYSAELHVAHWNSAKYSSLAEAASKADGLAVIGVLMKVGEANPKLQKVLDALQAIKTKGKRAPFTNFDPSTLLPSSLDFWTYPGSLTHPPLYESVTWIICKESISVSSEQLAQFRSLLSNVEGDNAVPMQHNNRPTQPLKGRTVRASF
In another data set the target is Carbonic anhydrase 7 (Homo sapiens, UniProt P43166). Put plainly: Inhibition of recombinant human CA7 preincubated for 15 mins by stopped-flow CO2 hydration assay.
Sequence of Carbonic anhydrase 7 (P43166 whole entry): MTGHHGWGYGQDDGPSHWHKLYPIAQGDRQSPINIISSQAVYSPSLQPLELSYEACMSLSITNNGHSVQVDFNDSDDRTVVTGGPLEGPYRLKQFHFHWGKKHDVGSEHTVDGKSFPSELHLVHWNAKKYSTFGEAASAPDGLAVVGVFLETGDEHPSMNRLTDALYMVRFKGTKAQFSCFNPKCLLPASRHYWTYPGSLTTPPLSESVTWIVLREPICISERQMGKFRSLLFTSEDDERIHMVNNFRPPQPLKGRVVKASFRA
For a further data set, the target named is Carbonic anhydrase 12 (Homo sapiens, UniProt O43570). Put plainly: Inhibition of recombinant human CA12 preincubated for 15 mins by stopped-flow CO2 hydration assay.
Sequence of Carbonic anhydrase 12 (O43570 whole entry): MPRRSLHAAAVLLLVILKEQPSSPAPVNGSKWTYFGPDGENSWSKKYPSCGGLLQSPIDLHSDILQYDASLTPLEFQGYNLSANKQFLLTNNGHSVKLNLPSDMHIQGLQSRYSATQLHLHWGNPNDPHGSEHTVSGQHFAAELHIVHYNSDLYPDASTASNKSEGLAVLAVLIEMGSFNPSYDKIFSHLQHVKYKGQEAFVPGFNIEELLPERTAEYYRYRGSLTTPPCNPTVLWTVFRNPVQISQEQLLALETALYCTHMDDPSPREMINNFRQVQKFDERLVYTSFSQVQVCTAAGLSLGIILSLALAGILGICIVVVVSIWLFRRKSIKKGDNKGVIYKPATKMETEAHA
In a further data set the target is Carbonic anhydrase 2 (Homo sapiens, UniProt P00918). As to the kind of experiment: Inhibition of recombinant human CA2 preincubated for 15 mins by stopped-flow CO2 hydration assay.
For data set [1], the system named is Rattus norvegicus. As to the kind of experiment: Antihyperalgesic activity in complete Freund's adjuvant-induced Sprague-Dawley rat rheumatoid arthritis model assessed as increase in weight tolerance on ipsilateral paw at 10 mg/kg, po administered once on day 14 post complete Freund's adjuvant challenge measured after 30 to 45 mins post dose by analgesimetry. The class given is functional, organism-based.

Data set [2] relates to Rattus norvegicus. Put plainly: Antihyperalgesic activity in complete Freund's adjuvant-induced Sprague-Dawley rat rheumatoid arthritis model assessed as improvement in postural imbalance by measuring difference between weight burdened on contralateral and ipsilateral paw at 10 mg/kg, po administered once on day 14 post complete Freund's adjuvant challenge measured after 15 to 30 mins by incapacitance test. The class given is functional, organism-based.

Data set [3] has as its system Rattus norvegicus. Put plainly: Effect on normal pain sensitivity in complete Freund's adjuvant-induced Sprague-Dawley rat rheumatoid arthritis model assessed as change in contralateral paw withdrawal threshold at 10 mg/kg, po administered once on day 14 post complete Freund's adjuvant challenge measured after 15 to 75 mins by analgesimetry. The following applies: in vivo. The class given is ADME, organism-based.

Data set [4] deals with Rattus norvegicus. As to the kind of experiment: Antihyperalgesic activity in complete Freund's adjuvant-induced Sprague-Dawley rat rheumatoid arthritis model assessed as increase in weight tolerance on ipsilateral paw at 10 mg/kg, po administered once on day 14 post complete Freund's adjuvant challenge measured at 75 mins post dose by analgesimetry. The class given is functional, organism-based.

In data set [5] the test system is Rattus norvegicus. As to the kind of experiment: Antihyperalgesic activity in complete Freund's adjuvant-induced Sprague-Dawley rat rheumatoid arthritis model assessed as weight tolerance on ipsilateral paw at 10 mg/kg, po administered once on day 14 post complete Freund's adjuvant challenge measured at 30 mins post dose by analgesimetry (reference value: 47.6 +/- 1.2 g). It is filed as functional.

Data set [6] deals with Rattus norvegicus. As to the kind of experiment: Antihyperalgesic activity in complete Freund's adjuvant-induced Sprague-Dawley rat rheumatoid arthritis model assessed as weight tolerance on ipsilateral paw at 10 mg/kg, po administered once on day 14 post complete Freund's adjuvant challenge measured at 45 mins post dose by analgesimetry (reference value: 47.6 +/- 1.2 g). It is filed as functional.

A further data set addresses Carbonic anhydrase 4 (Homo sapiens, UniProt P22748).
The subject of data set [7] is Rattus norvegicus. As to the kind of experiment: Antihyperalgesic activity in complete Freund's adjuvant-induced Sprague-Dawley rat rheumatoid arthritis model assessed as improvement in postural imbalance by measuring difference between weight burdened on contralateral and ipsilateral paw at 10 mg/kg, po administered once on day 14 post complete Freund's adjuvant challenge measured at 45 mins post dose by incapacitance test (reference value: 45.6 +/- …. It is filed as functional.

The test system of data set [8] is Rattus norvegicus. As to the kind of experiment: Antihyperalgesic activity in complete Freund's adjuvant-induced Sprague-Dawley rat rheumatoid arthritis model assessed as improvement in postural imbalance by measuring difference between weight burdened on contralateral and ipsilateral paw at 10 mg/kg, po administered once on day 14 post complete Freund's adjuvant challenge measured at 60 mins post dose by incapacitance test. The class given is functional, organism-based.

Data set [9] deals with Rattus norvegicus. Put plainly: Antihyperalgesic activity in complete Freund's adjuvant-induced Sprague-Dawley rat rheumatoid arthritis model assessed as improvement in postural imbalance by measuring difference between weight burdened on contralateral and ipsilateral paw at 10 mg/kg, po administered once on day 14 post complete Freund's adjuvant challenge measured at 30 mins post dose by incapacitance test (reference value: 45.6 +/- …. The class given is functional.

In data set [10] the test system is Rattus norvegicus. Put plainly: Antihyperalgesic activity in complete Freund's adjuvant-induced Sprague-Dawley rat rheumatoid arthritis model assessed as increase in weight tolerance on ipsilateral paw at 10 mg/kg, po administered once on day 14 post complete Freund's adjuvant challenge measured after 45 mins post dose by analgesimetry. It is filed as functional, organism-based.

Data set [11] deals with Rattus norvegicus. As to the kind of experiment: Antihyperalgesic activity in complete Freund's adjuvant-induced Sprague-Dawley rat rheumatoid arthritis model assessed as increase in weight tolerance on ipsilateral paw at 10 mg/kg, po administered once on day 14 post complete Freund's adjuvant challenge measured after 15 to 75 mins post dose by analgesimetry. The class given is functional, organism-based.

The subject of data set [12] is Rattus norvegicus. Put plainly: Antihyperalgesic activity in complete Freund's adjuvant-induced Sprague-Dawley rat rheumatoid arthritis model assessed as improvement in postural imbalance by measuring difference between weight burdened on contralateral and ipsilateral paw at 100 mg/kg, po administered once on day 14 post complete Freund's adjuvant challenge measured after 15 to 30 mins by incapacitance test. It is filed as functional, organism-based.

Data set [13] concerns Rattus norvegicus. Put plainly: Antihyperalgesic activity in complete Freund's adjuvant-induced Sprague-Dawley rat rheumatoid arthritis model assessed as increase in weight tolerance on ipsilateral paw at 100 mg/kg, po administered once on day 14 post complete Freund's adjuvant challenge measured after 15 to 30 mins post dose by analgesimetry. The class given is functional, organism-based.

The source made the active and inactive calls.

Sequence of Carbonic anhydrase 4 (P22748 whole entry): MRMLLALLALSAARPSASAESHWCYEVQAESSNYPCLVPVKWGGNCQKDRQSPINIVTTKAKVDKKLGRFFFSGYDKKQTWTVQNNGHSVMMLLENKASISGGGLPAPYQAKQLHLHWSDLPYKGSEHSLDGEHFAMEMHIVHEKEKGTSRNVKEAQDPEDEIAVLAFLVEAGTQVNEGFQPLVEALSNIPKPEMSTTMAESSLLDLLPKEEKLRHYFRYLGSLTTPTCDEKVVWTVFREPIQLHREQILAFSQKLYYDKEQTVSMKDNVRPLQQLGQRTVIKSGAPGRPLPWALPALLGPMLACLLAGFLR
Description for Carbonic anhydrase 4: Inhibition of recombinant human CA4 preincubated for 15 mins by stopped-flow CO2 hydration assay
Description for Carbonic anhydrase 9: Inhibition of recombinant human CA9 catalytic domain preincubated for 15 mins by stopped-flow CO2 hydration assay

For orientation: Ki means a dissociation constant, usually derived from enzyme kinetics or from competition with a known ligand. Turning to `COc1ccc2cc([C@H](C)C(=O)NCCOc3ccc4oc(=O)ccc4c3)ccc2c1`, the Ki on Carbonic anhydrase 9, on Carbonic anhydrase 1, at Carbonic anhydrase 7, on Carbonic anhydrase 12 and on Carbonic anhydrase 2 was greater than 100 nM each time.
Regarding `CC1=C(CC(=O)NCCOc2ccc3ccc(=O)oc3c2)c2cc(F)ccc2/C1=C\c1ccc([S+](C)[O-])cc1` (stereo not given), the Ki at Carbonic anhydrase 9 is 27.9 nM; at Carbonic anhydrase 1, greater than 100 nM; on Carbonic anhydrase 7, greater than 100 nM; at Carbonic anhydrase 2, greater than 100 nM. For the same compound, the outcome in the data set with Rattus norvegicus [1] and in the data set with Rattus norvegicus [2] was Active. The Activity entry with Rattus norvegicus [3] was “Non-Toxic”.
Take `COc1ccc2cc([C@H](C)C(=O)NCCOc3ccc4ccc(=O)oc4c3)ccc2c1`: the Ki at Carbonic anhydrase 9, at Carbonic anhydrase 1, on Carbonic anhydrase 7 and at Carbonic anhydrase 2 was greater than 100 nM each time.
As for `CC(C)Cc1ccc(C(C)C(=O)NCCOc2ccc3ccc(=O)oc3c2)cc1` (racemic), the outcome in the data set with Rattus norvegicus [4] and in the data set on Rattus norvegicus [8] was Active. Also, the Activity with Rattus norvegicus [5] was 63.8 g; with Rattus norvegicus [6] it was 61.3 g; in the data set on Rattus norvegicus [7] it was 11.1 g; in the data set on Rattus norvegicus [3], “Non-Toxic”; in the data set on Rattus norvegicus [9], 7.9 g. Moreover, the Ki on Carbonic anhydrase 9 is greater than 100 nM; at Carbonic anhydrase 4, 9.1 nM; on Carbonic anhydrase 1 it was greater than 100 nM; on Carbonic anhydrase 7 it was greater than 100 nM; at Carbonic anhydrase 12, 39 nM; at Carbonic anhydrase 2, greater than 100 nM.
As to `O=C(c1ccccc1)c1ccc2n1CCC2C(=O)NCCOc1ccc2ccc(=O)oc2c1` (racemic), the Ki at Carbonic anhydrase 9, on Carbonic anhydrase 1, at Carbonic anhydrase 7, on Carbonic anhydrase 12 and on Carbonic anhydrase 2 was greater than 100 nM each time. For the same compound, in the data set on Rattus norvegicus [10], the result was Active. Further, the Activity entry in the data set on Rattus norvegicus [3] is “Non-Toxic”.
For `CC1=C(CC(=O)NCCOc2ccc3oc(=O)ccc3c2)c2cc(F)ccc2/C1=C\c1ccc([S+](C)[O-])cc1` (stereo not given), the Ki was 30.8 nM at Carbonic anhydrase 9, greater than 100 nM on Carbonic anhydrase 1, greater than 100 nM on Carbonic anhydrase 7 and greater than 100 nM on Carbonic anhydrase 2.
In the case of `COc1ccc2c(c1)c(CC(=O)NCCOc1ccc3oc(=O)ccc3c1)c(C)n2C(=O)c1ccc(Cl)cc1`, the Ki was 31.3 nM on Carbonic anhydrase 9, greater than 100 nM at Carbonic anhydrase 1, greater than 100 nM at Carbonic anhydrase 7 and greater than 100 nM at Carbonic anhydrase 2. The outcome in the data set on Rattus norvegicus [2] and in the data set with Rattus norvegicus [10] was Active. Also, the Activity result with Rattus norvegicus [3] is listed as “Non-Toxic”.
For `O=C(Cc1ccccc1Nc1c(Cl)cccc1Cl)NCCOc1ccc2oc(=O)ccc2c1`, the Ki at Carbonic anhydrase 4 is 5.6 nM; at Carbonic anhydrase 1 it was greater than 100 nM; at Carbonic anhydrase 7, greater than 100 nM; at Carbonic anhydrase 2, greater than 100 nM.
As to `CC(C(=O)NCCOc1ccc2oc(=O)ccc2c1)c1cccc(C(=O)c2ccccc2)c1` (racemic), the Ki was 54.7 nM at Carbonic anhydrase 9; greater than 100 nM at Carbonic anhydrase 1; greater than 100 nM at Carbonic anhydrase 7; greater than 100 nM at Carbonic anhydrase 12; greater than 100 nM on Carbonic anhydrase 2.
As to `CC(C(=O)NCCOc1ccc2ccc(=O)oc2c1)c1ccc(-c2ccccc2)c(F)c1` (racemic), the Ki on Carbonic anhydrase 9, on Carbonic anhydrase 1, at Carbonic anhydrase 7, at Carbonic anhydrase 12 and at Carbonic anhydrase 2 was greater than 100 nM in each case. For the same compound, the result in the data set with Rattus norvegicus [2] and in the data set on Rattus norvegicus [10] was Active. Moreover, in the data set on Rattus norvegicus [3], the Activity result is reported as “Non-Toxic”.
On to `CC(C(=O)NCCOc1ccc2ccc(=O)oc2c1)c1cccc(C(=O)c2ccccc2)c1` (racemic), for which the Ki on Carbonic anhydrase 9 was greater than 100 nM; on Carbonic anhydrase 1 it was greater than 100 nM; on Carbonic anhydrase 7, greater than 100 nM; on Carbonic anhydrase 2, 85.4 nM. The outcome in the data set with Rattus norvegicus [11] was inactive. Further, in the data set on Rattus norvegicus [3], the Activity entry is reported as “Non-Toxic”.
Turning to `CC(C(=O)NCCOc1ccc2oc(=O)ccc2c1)c1ccc(-c2ccccc2)c(F)c1` (racemic), the Ki on Carbonic anhydrase 1, on Carbonic anhydrase 7 and at Carbonic anhydrase 2 was greater than 100 nM throughout. Besides, in the data set with Rattus norvegicus [11], the result was inactive. The Activity result in the data set with Rattus norvegicus [3] is “Non-Toxic”.
In the case of `CC(C)Cc1ccc(C(C)C(=O)O)cc1` (stereo not given), the result in the data set with Rattus norvegicus [12] and in the data set on Rattus norvegicus [13] was Active.
For `O=C(Cc1ccccc1Nc1c(Cl)cccc1Cl)NCCOc1ccc2ccc(=O)oc2c1`, the Ki was 9.1 nM on Carbonic anhydrase 4, greater than 100 nM on Carbonic anhydrase 1, greater than 100 nM at Carbonic anhydrase 7 and greater than 100 nM on Carbonic anhydrase 2. In the data set on Rattus norvegicus [11], the result was inactive. The Activity result with Rattus norvegicus [3] is given as “Non-Toxic”.
As for `COc1ccc2c(c1)c(CC(=O)NCCOc1ccc3ccc(=O)oc3c1)c(C)n2C(=O)c1ccc(Cl)cc1`, the Ki at Carbonic anhydrase 9 is 20.1 nM; at Carbonic anhydrase 1, greater than 100 nM; at Carbonic anhydrase 7, greater than 100 nM; on Carbonic anhydrase 2 it was greater than 100 nM. The outcome in the data set with Rattus norvegicus [11] was inactive. The Activity result in the data set with Rattus norvegicus [3] is “Non-Toxic”.
In the case of `O=C(c1ccccc1)c1ccc2n1CCC2C(=O)NCCOc1ccc2oc(=O)ccc2c1` (racemic), the Ki at Carbonic anhydrase 9 is 31.8 nM; on Carbonic anhydrase 1 it was greater than 100 nM; at Carbonic anhydrase 7, greater than 100 nM; at Carbonic anhydrase 12, greater than 100 nM; on Carbonic anhydrase 2 it was greater than 100 nM.
In the case of `CC(C)Cc1ccc(C(C)C(=O)NCCOc2ccc3oc(=O)ccc3c2)cc1` (stereo not given), the Ki at Carbonic anhydrase 9 was greater than 100 nM; on Carbonic anhydrase 4, 0.44 nM; on Carbonic anhydrase 1 it was greater than 100 nM; on Carbonic anhydrase 7, greater than 100 nM; at Carbonic anhydrase 12, greater than 100 nM; at Carbonic anhydrase 2, greater than 100 nM.
